Assay results: patent US20050277190A1, “Pancreatic stem cells” (priority 2004, published 2005)
Entries after “also recorded” stand apart in the source; their conditions may differ. Ends that are not written are not given here.

Legend:
Type in all cases: cell-based, mouse
[1] = test system: differentiated PSC colonies; assay: Insulin release by differentiated PSC colonies (radioimmunoassay); conditions: 1.5 hour incubation; for insulin release in response to high glucose plus agent: 20 mM glucose with 30 nM GLP-1, 10 mM TEA or 100 μM verapamil; for insulin release in response to agent alone: 20 mM glucose (HG) or 100 μM carbachol alone, relative to LG-KRB
Protocol: PSC colonies were pooled and differentiated (8 per well, 96-well Matrigel-coated plates) for 7 days as described. Twenty-four hours prior to secretion studies, the medium was changed to supplemented RPMI-1640 medium as outlined above. Differentiated PSC colonies were pre-incubated in low glucose (2.5 mM) KRB solution (LG-KRB) for 1 hour. The solution was changed to 150 μl of fresh LG-KRB and the cultures were incubated for 1.5 hours to establish the basal level of insulin release. […] Insulin was measured using an RIA kit (Linco). Insulin release during the experimental 1.5 hour incubation was compared to the level determined during the basal 1.5 hour incubation period for each individual well to obtain a percent change. The data are expressed relative to the percent change measured for the LG-KRB to LG-KRB alone condition.

[2] = test system: YFP+ cells from islet- and ductal-derived PSC cultures; assay: [Ca2+]i imaging (Fura2) of RIP-YFP+ cells from differentiated PSC colonies; conditions: agent added on top of glucose; single YFP+ cells, islet- and ductal-derived PSC progeny
[3] = test system: PSC spheres; assay: PSC sphere colony formation assay and serum-free passaging with BIO; conditions: BIO included during primary serum-free sphere formation and serum-free passaging; period of 5 months
Excerpt: 1) Using the standard PSC sphere colony formation assay, the (commercially available) compound, BIO ((2_Z,3_E)-6-Bromoindirubin-3_-oxime) has been included. […] The GSK-3α/β protein kinases have a critical role within the Wnt-signalling pathway, with their inhibition by BIO leading to an activation of the Wnt pathway. The Wnt pathway is involved with the specification/development of multiple tissues. With BIO inclusion during the primary serum-free sphere formation and subsequent serum-free passaging, PSC spheres can be passaged indefinitely. PSC spheres have been successfully passaged, currently up to the 9th passage over a period of 5 months. The number of sphere-forming cells and resultant clonal spheres expanded (over 30-fold) during this period.
Isolated islets and ductal tissue were then incubated with trypsin (Sigma) at 37° C. and triturated with a small-borehole siliconized pipette into a single cell suspension. Viable cells were counted using Trypan Blue (Sigma) exclusion and plated at 20 cells μl^−1 or less in defined serum-free medium (SFM)^63 containing B27 (Gibco-BRL), 10 ng ml^−1 FGF2 (Sigma), 2 μg ml^−1 heparin (Sigma), and 20 ng ml^−1 EGF (Sigma) for 7-14 DIV. […] Each well was scored after plating for the presence of a single cell. […]

Molecule	insulin release in response to high glucose plus agent [1]	effect of added agent on glucose-stimulated [Ca2+]i response [2]	also measured
COc1ccc(CCN(C)CCCC(C#N)(c2ccc(OC)c(OC)c2)C(C)C)cc1OC (centres unmarked) [verapamil]	abolishes glucose-stimulated insulin release to basal levels; also recorded: abolished the glucose-stimulated insulin release	–	–
glucagon-like peptide-1 (HAEGTFTSDVSSYLEGQAAKEFIAWLVKGR; ends and bridges not checked; UniProt P01275 98-127, looked up) [GLP-1, physiological secretagogue known to stimulate β-cells in a glucose-dependent manner]	augmentation of this release; also recorded: increased insulin secretion; also recorded: increased insulin release	augmented	–
C[N+](C)(C)CCOC(N)=O [carbachol]	–	–	insulin release in response to agent alone [1]: insulin release in response to carbachol; also recorded: secrete insulin in response to carbachol; insulin release in response to agent alone ([1]; listed as Carbachol): increased insulin release
O=C1Nc2cc(Br)ccc2/C1=C1/Nc2ccccc2/C1=N\O [BIO, (2_Z,3_E)-6-Bromoindirubin-3_-oxime]	–	–	expansion of the number of sphere-forming cells and resultant clonal spheres [3]: over 30 fold
CC[N+](CC)(CC)CC [TEA, tetra ethyl ammonium]	augmentation of this release; also recorded: increased insulin secretion; also recorded: increased insulin release	augmented	–
